What follows are compounds tested against Beta-3 Adrenergic Receptor (Homo sapiens (Human), UniProt P13945) (assay: Homogeneous Time-Resolved Fluorescence (HTRF) cAMP antagonist assay, IC50 determination). Conditions: CHO-K1 cells stably expressing recombinant receptor, isoproterenol at EC90.
Assay type: cell-based
How it was run: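 CHO-K1 cells stably expressing the recombinant receptor were preincubated with compound (10-point, 5-fold dilutions; top final typically 10 or 100 μM) in PBS with 1 mM IBMX, then stimulated with isoproterenol at its EC90 for 1 h at room temperature. cAMP was read by HTRF against an on-plate standard curve.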

Chain of Beta-3 Adrenergic Receptor (P13945 whole entry, species assumed): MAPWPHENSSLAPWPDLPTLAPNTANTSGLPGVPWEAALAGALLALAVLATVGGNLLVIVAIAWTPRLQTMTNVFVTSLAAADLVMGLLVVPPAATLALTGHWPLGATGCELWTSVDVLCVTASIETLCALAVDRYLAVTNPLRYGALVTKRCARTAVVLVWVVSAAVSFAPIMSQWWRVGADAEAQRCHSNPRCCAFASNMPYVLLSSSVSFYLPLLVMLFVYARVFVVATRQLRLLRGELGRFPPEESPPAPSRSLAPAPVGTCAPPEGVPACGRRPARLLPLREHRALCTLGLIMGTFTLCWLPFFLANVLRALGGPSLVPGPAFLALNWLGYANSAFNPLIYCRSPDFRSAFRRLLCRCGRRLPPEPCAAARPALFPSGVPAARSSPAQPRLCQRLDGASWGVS

Question: Which IC50 does the source give for `CC(C)NCc1ccc(-c2cccc(S(=O)(=O)N3CCC4(CC3)C[C@@H](NC[C@H](O)COc3cccc(S(N)(=O)=O)c3)CO4)c2)cc1` [Compound 440, 3-((S)-2-hydroxy-3-((R)-8-(4′-((isopropylamino)methyl)biphenyl-3-ylsulfonyl)-1-oxa-8-azaspiro[4.5]decan-3-ylamino)propoxy)benzenesulfonamide] here?
Answer: Its IC50 is 112 nM.

Question: For `O=S(=O)(NC(CO)CO)c1cccc(OC[C@@H](O)CNC2COC3(CCN(S(=O)(=O)c4ccc5ccccc5c4)CC3)C2)c1` (stereo partly drawn) [Compound 95, N-(1,3-dihydroxypropan-2-yl)-3-((2S)-2-hydroxy-3-(8-(naphthalen-2-ylsulfonyl)-1-oxa-8-azaspiro[4.5]decan-3-ylamino)propoxy)benzenesulfonamide], which IC50 is on record?
Answer: The IC50 was 159 nM.

Question: With `CNS(=O)(=O)c1cccc(OC[C@@H](O)CNC2COC3(CCN(S(=O)(=O)c4ccc5c(c4)CCCO5)CC3)C2)c1` (stereo partly drawn) [Compound 41, 3-((2S)-3-(8-(chroman-6-ylsulfonyl)-1-oxa-8-azaspiro[4.5]decan-3-ylamino)-2-hydroxypropoxy)-N-methylbenzenesulfonamide] as the compound, how does the IC50 read?
Answer: Its IC50 is 6.82 nM.

Question: How did the IC50 turn out when `CCN1CCOc2ncc(S(=O)(=O)N3CCC4(CC3)CC(NC[C@H](O)COc3cccc(S(=O)(=O)NC)c3)CO4)cc21` (stereo partly drawn) [Compound 423, 3-((2S)-3-(8-(1-ethyl-2,3-dihydro-1H-pyrido[2,3-b][1,4]oxazin-7-ylsulfonyl)-1-oxa-8-azaspiro[4.5]decan-3-ylamino)-2-hydroxypropoxy)-N-methylbenzenesulfonamide] was run?
Answer: Its IC50 is 12.6 nM.

Question: With `CNS(=O)(=O)c1cccc(OC[C@@H](O)CNC2COC3(CCN(S(=O)(=O)c4ccc(OC)c5ccccc45)CC3)C2)c1` (stereo partly drawn) [Compound 258, 3-((2S)-2-hydroxy-3-(8-(4-methoxynaphthalen-1-ylsulfonyl)-1-oxa-8-azaspiro[4.5]decan-3-ylamino)propoxy)-N-methylbenzenesulfonamide] as the compound, how does the IC50 read?
Answer: Its IC50 is 67.9 nM.

Question: How did the IC50 turn out when `CNS(=O)(=O)c1cccc(OC[C@@H](O)CN[C@H]2COC3(CCN(c4nccc(C)n4)CC3)C2)c1` [Compound 575, 3-((S)-2-hydroxy-3-((R)-8-(4-methylpyrimidin-2-yl)-1-oxa-8-azaspiro[4.5]decan-3-ylamino)propoxy)-N-methylbenzenesulfonamide] was run?
Answer: The IC50 was 216 nM.

Question: For `CNS(=O)(=O)c1cccc(OC[C@@H](O)CN[C@H]2COC3(CCN(S(=O)(=O)c4ccc5ncccc5c4)CC3)C2)c1` [Compound 344, 3-((S)-2-hydroxy-3-((R)-8-(quinolin-6-ylsulfonyl)-1-oxa-8-azaspiro[4.5]decan-3-ylamino)propoxy)-N-methylbenzenesulfonamide], which IC50 is on record?
Answer: The IC50 was 42.7 nM.

Question: For `Cc1c[nH]c2ncc(S(=O)(=O)N3CCC4(CC3)C[C@@H](NC[C@H](O)COc3cccc(S(N)(=O)=O)c3)CO4)cc12` [Compound 558, 3-((S)-2-hydroxy-3-((R)-8-(3-methyl-1H-pyrrolo[2,3-b]pyridin-5-ylsulfonyl)-1-oxa-8-azaspiro[4.5]decan-3-ylamino)propoxy)benzenesulfonamide], which IC50 is on record?
Answer: The IC50 was 13.6 nM.

Question: How did the IC50 turn out when `CNS(=O)(=O)c1cccc(OC[C@@H](O)CNC2COC3(CCN(S(=O)(=O)c4cc(Cl)ccc4Cl)CC3)C2)c1` (stereo partly drawn) [Compound 140, 3-((2S)-3-(8-(2,5-dichlorophenylsulfonyl)-1-oxa-8-azaspiro[4.5]decan-3-ylamino)-2-hydroxypropoxy)-N-methylbenzenesulfonamide] was run?
Answer: Its IC50 is 11.3 nM.

Question: With `CN(C)CCCNS(=O)(=O)c1cccc(OC[C@@H](O)CNC2COC3(CCN(S(=O)(=O)c4ccc5c(c4)CCCC5)CC3)C2)c1` (stereo partly drawn) [Compound 314, N-(3-(dimethylamino)propyl)-3-((2S)-2-hydroxy-3-(8-(5,6,7,8-tetrahydronaphthalen-2-ylsulfonyl)-1-oxa-8-azaspiro[4.5]decan-3-ylamino)propoxy)benzenesulfonamide] as the compound, how does the IC50 read?
Answer: Its IC50 is 716 nM.

Question: Which IC50 does the source give for `CNS(=O)(=O)c1cccc(OC[C@@H](O)CN[C@H]2COC3(CCN(S(=O)(=O)c4cnc5[nH]ccc5c4)CC3)C2)c1` [Compound 506, 3-((S)-3-((R)-8-(1H-pyrrolo[2,3-b]pyridin-5-ylsulfonyl)-1-oxa-8-azaspiro[4.5]decan-3-ylamino)-2-hydroxypropoxy)-N-methylbenzenesulfonamide] here?
Answer: The IC50 was 11.9 nM.

— patent US11987588B2, “Modulators of the beta-3 adrenergic receptor useful for the treatment or prevention of heart failure and disorders related thereto” (Arena Pharmaceuticals, Inc., priority 2017, dated 2024)
